The target of the experiment is T1, human plasma protein factor Xa (Homo sapiens, UniProt P00742).
T1 construct: measure proteolytic activity of the enzyme (factor Xa); purchased Haematologic Technologies (Essex Junction, Vt.); host or cells: human plasma
The experiment in a line: Factor Xa IC50 determination (cleavage of chromogenic substrate S-2765). It is filed as biochemical. Conditions: fXa 1 nM, S-2765 100 μM, Tris buffered saline pH 7.4, room temperature. From the text:
This example illustrates methods for evaluating the compounds of the invention, along with results obtained for such assays. The in vitro and in vivo Factor Xa isoform activities of the inventive compounds can be determined by various procedures known in the art, such as a test for their ability to inhibit the activity of the Factor Xa isoform. […] The IC50 value is the concentration (in nM) of the compound required to provide 50% inhibition of Factor Xa isoform.
An in vitro assay for detecting and measuring inhibition activity against Factor Xa is as follows:
• The substrate S-2765 (Z-D-Arg-Gly-Arg-pNA.HCl) was obtained from Diapharma (West Chester, Ohio). Enzyme: • The human plasma protein factor Xa was purchased from Haematologic Technologies (Essex Junction, Vt.). Methods
All assays, which are performed in 96-well microtiter plates, measure proteolytic activity of the enzyme (factor Xa) by following cleavage of paranitroanilide substrate. The assay buffer used for proteolytic assays was Tris buffered saline (20 mM Tris, 150 mM NaCl, 5 mM CaCl2, 0.1% Bovine serum albumin (BSA), 5% Dimethly Sulfoxide (DMSO) pH 7.4). In a 96-well microtiter plate, inhibitor was serially diluted to give a range of concentrations from 0.01 nM to 10 μM (final). Duplicate sets of wells were assayed and control wells without inhibitor were included. Enzyme was added to each well,(fXa concentration=1nM), the plate was shaken for 5 seconds and then incubated for 5 minutes at room temperature. S2765 was added (100 μM final) and the plate was shaken for 5 seconds (final liquid volume in each well was 200 μl). The degree of substrate hydrolysis was measured at 405 nm on a Thermomax plate reader (Molecular Devices, Sunnyvale, Calif.) for 2 minutes. The initial velocities (mOD/min), for each range of inhibitor concentrations, were fitted to a four parameter equation using Softmax data analysis software. The parameter C, derived from the resulting curve-fit, corresponded to the concentration for half maximal inhibition (IC50).

T1 sequence (P00742 235-488 limits assumed): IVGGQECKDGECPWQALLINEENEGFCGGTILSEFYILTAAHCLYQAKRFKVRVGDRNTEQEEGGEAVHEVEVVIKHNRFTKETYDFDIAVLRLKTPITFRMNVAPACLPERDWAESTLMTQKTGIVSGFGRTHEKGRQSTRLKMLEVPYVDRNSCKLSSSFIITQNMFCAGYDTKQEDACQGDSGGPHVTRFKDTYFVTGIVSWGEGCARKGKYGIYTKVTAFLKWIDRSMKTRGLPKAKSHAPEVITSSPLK
T1 sequence (P00742 41-179 partner limits assumed): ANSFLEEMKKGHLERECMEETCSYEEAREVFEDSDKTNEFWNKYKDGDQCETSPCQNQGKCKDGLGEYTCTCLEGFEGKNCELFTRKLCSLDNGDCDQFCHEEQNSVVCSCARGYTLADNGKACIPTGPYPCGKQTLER

Regarding `Cc1ccccc1C(NC(=O)Nc1ccc(Cl)cc1)C(=O)Nc1ccc(C(=O)N2CCOC2)cc1` (stereo not shown) [Example 98, N-[4-(oxazolidin-3-ylcarbonyl)phenyl]-2-(2-methylphenyl)-2-(4-chlorophenylaminocarbonylamino)-acetamide], the IC50 was no more than 100 nM.

Take `CN1CCN=C1c1ccc(NC(=O)C(NC(=O)Nc2ccc(F)cc2)c2cccs2)cc1` (stereo not shown) [Example 17, N-[4-(1-methyl-4,5-dihydro-1H-imidazol-2-yl)phenyl]-2-(2-thienyl)-2-(4-fluorophenylaminocarbonylamino)-acetamide]: the concentration for half-maximal inhibition (IC50) is 100 to 500 nM.

As to `CN1CCN=C1c1ccc(NC(=O)C(NC(=O)Nc2ccc(Cl)cc2)c2cccs2)cc1` (stereo not shown) [Example 12, N-[4-(1-methyl-4,5-dihydro-1H-imidazol-2-yl)phenyl]-2-(2-thienyl)-2-(4-chlorophenylaminocarbonylamino)-acetamide], the 50% inhibitory concentration (IC50) is no more than 100 nM. In the case of `CN1CCN=C1c1ccc(NC(=O)[C@H](CC(=O)OCc2ccccc2)NC(=O)Nc2ccc(Cl)cc2)cc1` [Example 59], the IC50 is no more than 100 nM.

In the case of `CN1CCN=C1c1ccc(NC(=O)[C@@H](NC(=O)Nc2ccc(Cl)cc2)c2ccccc2)cc1` [Example 31, (2S) N-[4-(1-methyl-4,5-dihydro-1H-imidazol-2-yl)phenyl]-2-phenyl-2-(4-chlorophenylaminocarbonylamino)-acetamide], the IC50 is no more than 100 nM. For `N=C(c1ccc(NC(=O)C(NC(=O)Nc2ccc(Cl)cc2)c2ccccc2Cl)cc1)N1CCCC1` (stereo not shown) [Example 101], the IC50 is no more than 100 nM. In the case of `COc1ccccc1C(NC(=O)Nc1ccc(Cl)cc1)C(=O)Nc1ccc(-c2cccc[n+]2[O-])cc1` (stereo not shown) [Example 107, N-[4-(N-oxo-pyridin-2-yl)phenyl]-2-(2-methoxyphenyl)-2-(4-chlorophenylaminocarbonylamino)-acetamide], the IC50 was no more than 100 nM. On to `CN1CCCN(c2ccc(NC(=O)C(NC(=O)Nc3ccc(Cl)cc3)c3ccccc3Cl)cc2)CC1` (stereo not shown) [Example 102, N-[4-(4-methyl-homopiperazinyl)phenyl]-2-(2-chlorophenyl)-2-(4-chlorophenylaminocarbonylamino)-acetamide], for which the half-inhibitory concentration (IC50) is no more than 100 nM. `O=C(Nc1ccc(Cl)cc1)NC(C(=O)N1CCC(N2CCOCC2=O)CC1)c1ccccc1Cl` (stereo not shown) [Example 145, 4-(3-morpholinon-4-yl)piperidin-1-yl-2-(2-chlorophenyl)-2-(4-chlorophenylaminocarbonylamino)-acetamide] gave an IC50 of no more than 100 nM.

`CN(C)C(=N)c1ccc(N2C(=O)C(NC(=O)Nc3ccc(Cl)cc3)Cc3ccccc32)cc1` (stereo not shown) [Example 134, 1-[4-(dimethylaminoimino)phenyl]-3-(4-chlorophenylaminocarbonylamino)-3,4-dihydroquinolin-2-one] registered an IC50 of 100 to 500 nM. In turn, `N=C(c1ccc(NC(=O)C(NC(=O)Nc2ccc(Cl)cc2)c2ccccc2F)c(F)c1)N1CCCC1` (stereo not shown) [Example 47] gave a 50% inhibitory concentration (IC50) of no more than 100 nM.

As to `CC(C)C(NC(=O)Nc1ccc(Cl)cc1)C(=O)Nc1ccc(C2=NCCN2C)cc1` (stereo not shown) [Example 2, N-[4-(1-methyl-4,5-dihydro-1H-imidazol-2-yl)phenyl]-2-isopropyl-2-(4-chlorophenylaminocarbonylamino)-acetamide], the 50% inhibitory concentration (IC50) is no more than 100 nM. As for `CN(C)C(=N)c1ccc(NC(=O)C(NC(=O)Nc2ccc(Cl)cc2)c2ccccc2)c(F)c1` (stereo not shown) [Example 33, N-[4-(dimethylaminoimino)-2-fluorophenyl]-2-phenyl-2-(4-chlorophenylaminocarbonylamino)-acetamide], the half-maximal inhibitory concentration (IC50) was no more than 100 nM.

`COc1ccccc1C(NC(=O)Nc1ccc(Cl)cc1)C(=O)Nc1ccc(C2=NCCN2C)cc1` (stereo not shown) [Example 106, N-[4-(1-methyl-4,5-dihydro-1H-imidazol-2-yl)phenyl]-2-(2-methoxyphenyl)-2-(4-chlorophenylaminocarbonylamino)-acetamide]: the half-maximal inhibitory concentration (IC50) was no more than 100 nM.

Regarding `CN1CCN=C1c1ccc(NC(=O)C(CC(C)(C)C)NC(=O)Nc2ccc(Cl)cc2)cc1` (stereo not shown) [Example 4, N-[4-(1-methyl-4,5-dihydro-1H-imidazol-2-yl)phenyl]-2-(2,2-dimethylpropyl)-2-(4-chlorophenylaminocarbonylamino)-acetamide], the IC50 is no less than 500 nM. Under `Cc1ccccc1C(NC(=O)Nc1ccc(Cl)cc1)C(=O)Nc1ccc(C(=N)N(C)C)cc1` (stereo not shown) [Example 86] stands no more than 100 nM.

`CN1CCN=C1c1ccc(NC(=O)C2(NC(=O)Nc3ccc(Cl)cc3)CC2)cc1` [Example 15, N-[4-(1-methyl-4,5-dihydro-1H-imidazol-2-yl)phenyl]-1-(4-chlorophenylaminocarbonylamino)-1-cyclopropanecarboxamide] had a concentration for half-maximal inhibition (IC50) of 100 to 500 nM. With `C=CCN(C)C(=N)c1ccc(NC(=O)C(NC(=O)Nc2ccc(Cl)cc2)c2ccccc2)cc1` (stereo not shown) [Example 26, N-[4-(N-methyl-N-allylaminoimino)phenyl]-2-phenyl-2-(4-chlorophenylaminocarbonylamino)-acetamide], the IC50 was no more than 100 nM. As for `CN1CCN=C1c1ccc(NC(=O)C(CC(=O)N2CCCC2)NC(=O)Nc2ccc(Cl)cc2)cc1` (stereo not shown) [Example 66, N-[4-(1-methyl-4,5-dihydro-1H-imidazol-2-yl)phenyl]-2-(pyrrolidin-1-yl-carbonylmethyl)-2-(4-chlorophenylaminocarbonylamino)-acetamide], the IC50 was no less than 500 nM.

`CN1CCC(C2CCN(C(=O)[C@H](NC(=O)Nc3ccc(Cl)cc3)c3ccccc3)CC2)CC1` [Example 155, (2R) 4-(1-methylpiperidin-4-yl)piperidin-1-yl-2-phenyl-2-(4-chlorophenylaminocarbonylamino)-acetamide] displayed a half-inhibitory concentration (IC50) of no more than 100 nM. Regarding `CN1CCN=C1c1ccc(NC(=O)C(CC(=O)Nc2ccccc2)NC(=O)Nc2ccc(Cl)cc2)cc1` (stereo not shown) [Example 73, N-[4-(1-methyl-4,5-dihydro-1H-imidazol-2-yl)phenyl]-2-(phenylamino-carbonylmethyl)-2-(4-chlorophenylaminocarbonylamino)-acetamide], the IC50 lay in the range of 100 to 500 nM. On to `N=C(c1ccc(NC(=O)C(NC(=O)Nc2ccc(Cl)cc2)c2cccs2)cc1)N1CCCCC1` (stereo not shown) [Example 22], for which the IC50 is no more than 100 nM.

Take `CN(C)C(=N)c1ccc(NC(=O)C(NC(=O)Nc2ccc(Cl)cc2)c2ccccc2)cc1` (stereo not shown) [Example 23]: the half-inhibitory concentration (IC50) is no more than 100 nM. Then `CN1CCN=C1c1ccc(NC(=O)C(NC(=O)Nc2ccc(Cl)cc2)c2ccccc2F)cc1` (stereo not shown) [Example 11, N-[4-(1-methyl-4,5-dihydro-1H-imidazol-2-yl)phenyl]-2-(2-fluorophenyl)-2-(4-chlorophenylaminocarbonylamino)-acetamide], with no more than 100 nM; and `CN1CCN=C1c1ccc(NC(=O)C(NC(=O)Nc2ccc(Cl)cc2)(c2ccccc2)c2ccccc2)cc1` [Example 14, N-[4-(1-methyl-4,5-dihydro-1H-imidazol-2-yl)phenyl]-2,2-diphenyl-2-(4-chlorophenylaminocarbonylamino)-acetamide], with no less than 500 nM. For the compound `CC(C)N1CCC(NC(=O)C(NC(=O)Nc2ccc(Cl)cc2)c2ccccc2Br)CC1` (stereo not shown) [Example 82, N-(1-isopropylpiperidin-4-yl)-2-(2-bromophenyl)-2-(4-chlorophenylamino-carbonylamino)-acetamide], the half-maximal inhibitory concentration (IC50) was no less than 500 nM. Then `CN1CCN=C1c1ccc(NC(=O)[C@H](CC(=O)O)NC(=O)Nc2ccc(Cl)cc2)cc1` [Example 60, (2S) N-[4-(1-methyl-4,5-dihydro-1H-imidazol-2-yl)phenyl]-2-carboxymethyl-2-(4-chlorophenylaminocarbonylamino)-acetamide], with no less than 500 nM; and `COc1ccccc1C(NC(=O)Nc1ccc(Cl)cc1)C(=O)N1CCN(C2CCCN(C)CC2)CC1` (stereo not shown) [Example 153, 4-(1-methylhomopiperidin-4-yl)piperazin-1-yl-2-(2-methoxyphenyl)-2-(4-chlorophenylaminocarbonylamino)-acetamide], with no more than 100 nM. In turn, `O=C(Nc1ccc(Cl)cc1)N[C@@H](C(=O)Nc1ccc(-n2ccccc2=O)cc1)c1ccccc1` [Example 138, (2R) N-[4-(2-pyridon-1-yl)phenyl]-2-phenyl-2-(4-chlorophenylaminocarbonylamino)-acetamide] yielded a concentration for half-maximal inhibition (IC50) of no more than 100 nM. `COc1ccccc1C(NC(=O)Nc1ccc(Cl)cc1)C(=O)NC1CCN(C(C)C)CC1` (stereo not shown) [Example 110, N-(1-isopropylpiperidin-4-yl)-2-(2-methoxyphenyl)-2-(4-chlorophenylamino-carbonylamino)-acetamide] came in with a half-inhibitory concentration (IC50) of no less than 500 nM. Regarding `CN1CCN=C1c1ccc(NC(=O)C(NC(=O)Nc2ccc(Cl)cc2)c2ccccc2)cc1` (stereo not shown) [Example 16, N-[4-(1-methyl-4,5-dihydro-1H-imidazol-2-yl)phenyl]-2-phenyl-2-(4-chlorophenylaminocarbonylamino)-acetamide], the IC50 was no more than 100 nM.

By IC50 is commonly meant the concentration at which inhibition is half-maximal. Read a low IC50 as greater potency.

The record behind these values is US7678913B2, “Ureas as factor Xa inhibitors” (Portola Pharmaceuticals, Inc., priority 2004, dated 2010).
